With `CCC(C)(C)NCC(O)c1ccc(O)c(O)c1OC` (stereo unspecified) the melting point was 172 to 174 °C.
With `CN(C)C=Nc1nc(=O)n(S(=O)(=O)c2ccc(Cl)cc2)cc1F` the melting point was 207 to 210 °C.
`NC(=NO)c1ncn2c1COC(=O)c1c(Cl)cccc1-2` showed a melting point of 252 to 254 °C.
With `Cc1nc(OC(F)F)nc(C)c1N1CCCn2c1nc1c(Cl)ccc(C(OC(F)F)C(F)(F)F)c12` (stereo unspecified) the melting point was 165 to 166 °C.
`Cn1nnnc1CC(=O)c1ccccc1N` gave a melting point of 128 to 132 °C.
In the case of `COC(=O)c1cccc([N+](=O)[O-])c1NCc1ccc(-c2ccccc2-c2nnnn2Cc2ccccc2)cc1`, the melting point is reported as 115 to 117 °C.
With `COc1cc(Br)nc2[nH]cc(C(C)=O)c12` the melting point was > 210 °C.
Work on `CC(C)(C)OC(=O)[C@H](Cc1ccccc1)NC(=O)CNC1Cc2ccccc2C1` yielded a melting point of 117 to 120 °C.
`CSCCOc1c(-c2ccc(S(C)(=O)=O)cc2)cnn(CC(F)(F)F)c1=O` showed a melting point of 103 to 105 °C.
`Cc1nc(-c2ccc(C(F)(F)F)cc2)sc1N` gave a melting point of 146 to 148 °C.
`CCCCn1c(C)c(C)cc(Oc2nc3ccccc3o2)c1=O` gave a melting point of 106 to 108 °C.
With `CN1C(=O)C(C)(C)CCc2cc(C(=O)O)ccc21` the melting point was 240 to 241 °C.
Molecule `Cn1ncc2c1CC(C)(C)C(C=O)C2=O` (stereo unspecified) has a melting point of 131 to 132 °C.
With `N#Cc1cc(C=O)cnc1Br` the melting point was 105 to 106 °C.
Molecule `CCc1ccc(OCC(=O)N(Cc2nc(-c3cccnc3)no2)C(C)C)cc1` has a melting point of 87.9 to 89.4 °C.
`Cc1ccccc1-n1ccc(=O)c(-c2ccnn2-c2ccccc2)n1` showed a melting point of 120 to 121 °C.
For `CCc1nc2c(N)nc(-c3ccncc3)nc2[nH]1`, the melting point was > 300 °C.
`COCc1nnc(N)s1` showed a melting point of 177 to 179 °C.
Molecule `CC(=O)N1CCn2c(c(C3=C(c4cn(C)c5ccccc45)C(=O)NC3=O)c3ccccc32)C1` has a melting point of 308 to 310 °C.
With `CN(Cc1cccc2c1CN(C1CCC(=O)NC1=O)C2=O)C(=O)Nc1ccc(Cl)cc1` (stereo unspecified) the melting point was 255 to 257 °C.
Work on `COc1ccc(CCN(C)CCCC2(c3ccc(OC)c(OC)c3)S(=O)(=O)CCCS2(=O)=O)cc1OC` yielded a melting point of 144 °C.
In the case of `Cn1cc(S(C)(=O)=O)c(=O)c2sccc21`, the melting point is reported as 258 to 261 °C.
Work on `CS(=O)(=O)c1ccc(/C(=C2\CCN(CCC(=O)O)C2=O)c2ccc(Cl)cc2)cc1` yielded a melting point of 178 to 179 °C.
Work on `Cc1cc(C(=S)Cl)c(Cl)cc1Cl` yielded a melting point of 94 to 95 °C.
Molecule `COC(=O)c1cc(O)c(O)c(OC)c1` has a melting point of 110 to 111 °C.
`Cc1cc(S(=O)(=O)c2cc(C)c(O)c(C3CCCCC3)c2)cc(C2CCCCC2)c1O` gave a melting point of 264 to 265 °C.
`CS(=O)(=O)c1ccc(-c2sc(Nc3cc(Cl)cc(Cl)c3)nc2-c2ccc(F)cc2)cc1` showed a melting point of 287 to 288 °C.
In the case of `CN1CCC[C@@H]1Cc1c[nH]c2ccc(CS(=O)(=O)NC(C)(C)C)cc12`, the melting point is reported as 73 to 75 °C.
Molecule `NC(=O)c1cccc(Cn2ccc(OCc3ccc(F)cc3F)c(Cl)c2=O)c1F` has a melting point of 252 to 254 °C.
Molecule `CC(C)Oc1cc(N2NC(C)(C)NC2=O)c(Cl)cc1Cl` has a melting point of 162 to 163 °C.
In the case of `CCCCCCc1ccc(-n2c(-c3ccc(C)cc3)ccc2-c2ccc(C)cc2)cc1`, the melting point is reported as 147 to 148 °C.
`Cc1cc(Cl)cc(C#N)c1` showed a melting point of 132 to 133 °C.
Molecule `CC(C)C(=O)C(C#N)=C(O)c1ccc(C(F)(F)F)cc1[N+](=O)[O-]` has a melting point of 83 to 85 °C.
For `O=Cc1cccc(CSCCNC(=O)c2c(Cl)cccc2Cl)c1`, the melting point was 63 to 65 °C.
Molecule `Oc1ccc(CC(=S)Nc2ncc(-c3ccc(O)cc3)nc2Cc2ccccc2)cc1` has a melting point of 101 to 103 °C.
For `COc1ccc(-c2[nH]nc3c2C(=O)c2c(NC(=O)NNC(=O)CCCc4ccccc4)cccc2-3)cc1`, the melting point was 269 °C.
Molecule `OC1(c2ccc(C3OCCO3)cc2)CCCCC1` has a melting point of 95 to 97 °C.
For `O=c1c2ccccc2cc(Br)c2ccncc12`, the melting point was 167 to 169 °C.
Work on `CCCCc1nc(=O)c2cc(C=O)ccc2[nH]1` yielded a melting point of 242 to 244 °C.
Molecule `CCn1c2c(c3ccccc31)=CC(=C1c3ccccc3-c3ccccc31)CC=2` has a melting point of 172 °C.
Molecule `Cc1cc(Cl)ccc1CCN(C(=O)C(C)Cl)c1ccccc1` (stereo unspecified) has a melting point of 128 °C.
